Experiment [1] has as its target T1, human adenosine A2A receptor (Homo sapiens, UniProt P29274).
T1 construct: expressed in transfected cells; host or cells: CHO cells, semliki forest virus expression system; washed membranes
Briefly: [3H]-SCH-58261 binding assay, human adenosine A2A receptor (CHO cell membranes, SPA). As to conditions: for Ki: [3H]-SCH-58261 displacement, read-out: hA2a Ki; for Select. A1/A2a: ratio hA1 Ki / hA2a Ki. The method, then: Human Adenosine A2A Receptor
The human adenosine A2A receptor was recombinantly expressed in chinese hamster ovary (CHO) cells using the semliki forest virus expression system. Cells were harvested, washed twice by centrifugation, homogenized and again washed by centrifugation. The final washed membrane pellet was suspended in a Tris (50 mM) buffer containing 120 mM NaCl, 5 mM KCl, 2 mM CaCl2 and 10 mM MgCl2 (pH 7.4) (buffer A). […] Compounds were tested at 10 concentrations from 10 μM-0.3 nM. All assays were conducted in duplicate and repeated at least two times. Assay plates were incubated for 1 hour at room temperature before centrifugation and then bound ligand determined using a Packard Topcount scintillation counter. IC50 values were calculated using a non-linear curve fitting program and Ki values calculated using the Cheng-Prussoff equation.

Another experiment deals with T2, hA1 (Homo sapiens, UniProt P30542).
T2 sequence (P30542 1-326): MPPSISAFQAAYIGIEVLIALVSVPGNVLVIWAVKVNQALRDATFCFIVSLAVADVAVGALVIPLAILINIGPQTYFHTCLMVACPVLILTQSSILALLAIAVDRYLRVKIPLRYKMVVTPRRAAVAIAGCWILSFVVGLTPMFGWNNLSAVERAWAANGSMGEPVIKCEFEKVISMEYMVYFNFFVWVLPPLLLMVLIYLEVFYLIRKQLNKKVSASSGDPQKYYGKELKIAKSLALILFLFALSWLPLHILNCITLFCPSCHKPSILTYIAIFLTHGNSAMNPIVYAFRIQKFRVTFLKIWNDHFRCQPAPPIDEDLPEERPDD
Kind of experiment: hA1 receptor affinity (Ki). It is filed as binding. As to conditions: list of examples 10-108.

Where [2] appears, read: Ki by Cheng-Prussoff, table of preferred compounds.

Like-named read-outs stand apart in the source and are kept apart here.

By Ki is commonly meant a measure of affinity in units of concentration, obtained from inhibition or displacement.

T1 sequence (P29274 whole entry): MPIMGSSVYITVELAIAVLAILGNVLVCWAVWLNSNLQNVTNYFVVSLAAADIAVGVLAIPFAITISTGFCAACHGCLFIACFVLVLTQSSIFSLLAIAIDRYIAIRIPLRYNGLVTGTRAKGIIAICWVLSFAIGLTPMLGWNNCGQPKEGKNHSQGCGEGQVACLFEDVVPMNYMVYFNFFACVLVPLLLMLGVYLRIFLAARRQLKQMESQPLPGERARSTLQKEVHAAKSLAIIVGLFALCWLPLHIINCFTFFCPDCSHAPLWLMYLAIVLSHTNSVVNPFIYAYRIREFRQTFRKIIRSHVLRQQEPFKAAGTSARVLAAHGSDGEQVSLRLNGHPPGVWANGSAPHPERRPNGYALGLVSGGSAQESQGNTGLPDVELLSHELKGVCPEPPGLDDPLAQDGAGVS

For the molecule `C[C@@H]1C[C@@H](C)CN(C(=O)c2cc(N)c3nc(-c4ccc(Br)o4)nn3c2)C1` (stereo in doubt) [Example 14, [8-Amino-2-(5-bromo-furan-2-yl)-[1,2,4]triazolo[1,5-a]pyridin-6-yl]-(3,5-dimethyl-piperidin-1-yl)-methanone], the inhibition constant Ki in experiment [1] (setting [2]) is 37.2 nM; at hA1 it was 1190 nM. The “Select. A1/A2a” value in experiment [1] is listed as 32.

Molecule `COCC1CCCN1C(=O)c1cc(N)c2nc(-c3ccc(Br)o3)nn2c1` (stereo in doubt) [Example 17, [8-Amino-2-(5-bromo-furan-2-yl)-[1,2,4]triazolo[1,5-a]pyridin-6-yl]-((S)-2-methoxymethyl-pyrrolidin-1-yl)-methanone] returned a Ki at hA1 of 1230 nM.

Take `COCC1CCCN1C(=O)c1cc(N)c2nc(-c3ccco3)nn2c1` (stereo in doubt) [Example 41, (8-Amino-2-furan-2-yl-[1,2,4]triazolo[1,5-a]pyridin-6-yl)-(2-R-methoxymethyl-pyrrolidin-1-yl)-methanone]: the Ki stood at 77.6 nM in experiment [1] (setting [2]) and 4360 nM at hA1. In addition, the “Select. A1/A2a” value in experiment [1] stood at 56.2. On hA1, `CCN(CC)C(=O)c1cc(N)c2nc(-c3ccc(Br)o3)nn2c1` [Example 10, 8-Amino-2-(5-bromo-furan-2-yl)-[1,2,4]triazolo[1,5-a]pyridine-6-carboxylic acid diethylamide] yielded an inhibition constant (Ki) of 2260 nM. The same measure, in the same setting: in the case of `Nc1cc(C(=O)N2CCCC2)cn2nc(-c3ccc(Br)o3)nc12` [Example 11, [8-Amino-2-(5-bromo-furan-2-yl)-[1,2,4]triazolo[1,5-a]pyridin-6-yl]-pyrrolidin-1-yl-methanone] it was 1270 nM; in that of `CC1CCCN1C(=O)c1cc(N)c2nc(-c3ccc(Br)o3)nn2c1` (stereo not shown) [Example 12, [8-Amino-2-(5-bromo-furan-2-yl)-[1,2,4]triazolo[1,5-a]pyridin-6-yl]-(2-methyl-pyrrolidin-1-yl)-methanone], 1120 nM.

At hA1, `CCN(CC)C(=O)C1CCCN(C(=O)c2cc(N)c3nc(-c4ccc(Br)o4)nn3c2)C1` (stereo not shown) [Example 13, 1-[8-Amino-2-(5-bromo-furan-2-yl)-[1,2,4]triazolo[1,5-a]pyridine-6-carbonyl]-piperidine-3-carboxylic acid diethylamide] displayed a Ki of 2690 nM. Regarding `CC1CCCCN1C(=O)c1cc(N)c2nc(-c3ccc(Br)o3)nn2c1` (stereo not shown) [Example 15, [8-Amino-2-(5-bromo-furan-2-yl)-[1,2,4]triazolo[1,5-a]pyridin-6-yl]-(2-methyl-piperidin-1-yl)-methanone], the Ki at hA1 stood at 1940 nM. `COC[C@@H]1CCCN1C(=O)c1cc(N)c2nc(-c3ccc(Br)o3)nn2c1` [Example 16, [8-Amino-2-(5-bromo-furan-2-yl)-[1,2,4]triazolo[1,5-a]pyridin-6-yl]-(2-methoxymethyl-pyrrolidin-1-yl)-methanone] returned an inhibition constant (Ki) on hA1 of 1050 nM. As to `CN(C)C(=O)[C@@H]1CCCN1C(=O)c1cc(N)c2nc(-c3ccc(Br)o3)nn2c1` [Example 18, 1-[8-Amino-2-(5-bromo-furan-2-yl)-[1,2,4]triazolo[1,5-a]pyridine-6-carbonyl]-pyrrolidine-2-carboxylic acid (S)-dimethylamide], the Ki in experiment [1] (setting [2]) was found to be 67 nM; at hA1 it was 1110 nM. In addition, the “Select. A1/A2a” value in experiment [1] is on record as 16.5. In turn, `CN(C)C(=O)CN(C)C(=O)c1cc(N)c2nc(-c3ccc(Br)o3)nn2c1` [Example 19, 8-Amino-2-(5-bromo-furan-2-yl)-[1,2,4]triazolo[1,5-a]pyridine-6-carboxylic acid dimethylcarbamoyl-methyl-methyl-amide] returned a Ki on hA1 of 3000 nM. On to `CC1CCCN(C(=O)c2cc(N)c3nc(-c4ccc(Br)o4)nn3c2)C1` (stereo not shown) [Example 20, [8-Amino-2-(5-bromo-furan-2-yl)-[1,2,4]triazolo[1,5-a]pyridin-6-yl]-(3-methyl-piperidin-1-yl)-methanone], for which the Ki at hA1 worked out at 803 nM.

As to `CCCN(C)C(=O)c1cc(N)c2nc(-c3ccc(Br)o3)nn2c1` [Example 21, 8-Amino-2-(5-bromo-furan-2-yl)-[1,2,4]triazolo[1,5-a]pyridine-6-carboxylic acid methyl-propyl-amide], the inhibition constant (Ki) at hA1 was found to be 1150 nM.

The molecule `CCN(CCc1ccccn1)C(=O)c1cc(N)c2nc(-c3ccc(Br)o3)nn2c1` [Example 22, 8-Amino-2-(5-bromo-furan-2-yl)-[1,2,4]triazolo[1,5-a]pyridine-6-carboxylic acid ethyl-(2-pyridin-2-yl-ethyl)-amide] came in with a Ki on hA1 of 1420 nM. Still for that read-out and setting: in the case of `Nc1cc(C(=O)N2CCSCC2)cn2nc(-c3ccc(Br)o3)nc12` [Example 23, [8-Amino-2-(5-bromo-furan-2-yl)-[1,2,4]triazolo[1,5-a]pyridin-6-yl]-thiomorpholin-4-yl-methanone] it was 937 nM.

As for `CN(CCC#N)C(=O)c1cc(N)c2nc(-c3ccc(Br)o3)nn2c1` [Example 24, 8-Amino-2-(5-bromo-furan-2-yl)-[1,2,4]triazolo[1,5-a]pyridine-6-carboxylic acid (2-cyano-ethyl)-methyl-amide], the Ki in experiment [1] (list of examples 10-108) turned out to be 111 nM; at hA1 it was 830 nM. Further, the “Select. A1/A2a” value in experiment [1] is reported as 7.5. At hA1, `CN(CCc1ccccc1)C(=O)c1cc(N)c2nc(-c3ccc(Br)o3)nn2c1` [Example 25, 8-Amino-2-(5-bromo-furan-2-yl)-[1,2,4]triazolo[1,5-a]pyridine-6-carboxylic acid methyl-phenethyl-amide] returned a Ki of 590 nM. `Nc1cc(C(=O)N2CCCC2)cn2nc(-c3ccccn3)nc12` [Example 26, (8-Amino-2-pyridin-2-yl-[1,2,4]triazolo[1,5-a]pyridin-6-yl)-pyrrolidin-1-yl-methanone] came in with a Ki at hA1 of 3570 nM. As for `Nc1cc(C(=O)N2CCCC2)cn2nc(-c3ccco3)nc12` [Example 34, (8-Amino-2-furan-2-yl-[1,2,4]triazolo[1,5-a]pyridin-6-yl)-pyrrolidin-1-yl-methanone], at hA1, the Ki was 4200 nM.

In the case of `Nc1cc(C(=O)N2CCCCC2)cn2nc(-c3ccco3)nc12` [Example 35, (8-Amino-2-furan-2-yl-[1,2,4]triazolo[1,5-a]pyridin-6-yl)-piperidin-1-yl-methanone], on hA1, the inhibition constant Ki is 3440 nM. `CC1CCCN1C(=O)c1cc(N)c2nc(-c3ccco3)nn2c1` (stereo not shown) [Example 37, (8-Amino-2-furan-2-yl-[1,2,4]triazolo[1,5-a]pyridin-6-yl)-(2-methyl-pyrrolidin-1-yl)-methanone]: the values for the Ki (in experiment [1] (setting [2]); on hA1) were 34.9 nM and 2940 nM, respectively. Further, the “Select. A1/A2a” value in experiment [1] came to 84.2. For the molecule `Nc1cc(C(=O)N2CCCC2)cn2nc(-c3cccs3)nc12` [Example 51, (8-Amino-2-thiophen-2-yl-[1,2,4]triazolo[1,5-a]pyridin-6-yl)-pyrrolidin-1-yl-methanone], the Ki at hA1 was 725 nM. In turn, `Cc1ccc(-c2nc3c(N)cc(C(=O)N4CCCC4)cn3n2)o1` [Example 83, [8-Amino-2-(5-methyl-furan-2-yl)-[1,2,4]triazolo[1,5-a]pyridin-6-yl]-pyrrolidin-1-yl-methanone] showed an inhibitory constant (Ki) on hA1 of 1640 nM. In turn, `Cc1ccc(-c2nc3c(N)cc(C(=O)N4CCCCC4)cn3n2)o1` [Example 84, [8-Amino-2-(5-methyl-furan-2-yl)-[1,2,4]triazolo[1,5-a]pyridin-6-yl]-piperidin-1-yl-methanone] gave a Ki at hA1 of 1270 nM. `Cc1ccc(-c2nc3c(N)cc(C(=O)N(C)CCc4ccccc4)cn3n2)s1` [Example 103, 8-Amino-2-(5-methyl-thiophen-2-yl)-[1,2,4]triazolo[1,5-a]pyridine-6-carboxylic acid methyl-phenethyl-amide]: the inhibition constant (Ki) in experiment [1] (list of examples 10-108) is 309 nM. Regarding `Nc1cc(C(=O)N2CCCC2)cn2nc(-c3nccs3)nc12` [Example 104, (8-Amino-2-thiazol-2-yl-[1,2,4]triazolo[1,5-a]pyridin-6-yl)-pyrrolidin-1-yl-methanone], the inhibition constant Ki in experiment [1] (list of examples 10-108) came to 564 nM. `CC1CCCN1C(=O)c1cc(N)c2nc(-c3nccs3)nn2c1` (stereo not shown) [Example 105, (8-Amino-2-thiazol-2-yl-[1,2,4]triazolo[1,5-a]pyridin-6-yl)-(2-methyl-pyrrolidin-1-yl)-methanone]: the inhibition constant Ki in experiment [1] (list of examples 10-108) is 654 nM. On to `CCCCN(C)C(=O)c1cc(N)c2nc(-c3nccs3)nn2c1` [Example 106, 8-Amino-2-thiazol-2-yl-[1,2,4]triazolo[1,5-a]pyridine-6-carboxylic acid butyl-methyl-amide], for which the Ki in experiment [1] (list of examples 10-108) turned out to be 844 nM. With `CC1CCCN(C(=O)c2cc(N)c3nc(-c4nccs4)nn3c2)C1` (stereo not shown) [Example 107, (8-Amino-2-thiazol-2-yl-[1,2,4]triazolo[1,5-a]pyridin-6-yl)-(3-methyl-piperidin-1-yl)-methanone], the inhibition constant (Ki) in experiment [1] (list of examples 10-108) stood at 632 nM. As for `CN(CCc1ccccc1)C(=O)c1cc(N)c2nc(-c3nccs3)nn2c1` [Example 108, 8-Amino-2-thiazol-2-yl-[1,2,4]triazolo[1,5-a]pyridine-6-carboxylic acid methyl-phenethyl-amide], the Ki in experiment [1] (list of examples 10-108) stood at 988 nM.

The values above are taken from patent US6689790B2, “Substituted triazolopyridine compounds” (Hoffmann-La Roche Inc., priority 2001, dated 2004).
